Source: publication PMC10114720

What was measured:
[1] = PDMS sheets cleaned by Soxhlet with ethyl acetate; batch shaking method with a mixture of all chemicals at several PDMS-mass to water-volume ratios and spiked levels; vials shaken on an orbital shaker at room temperature in the dark, sampled at two equilibration times; PDMS extracts and water quantified by LC-HRMS (Orbitrap); D from the slope of C_PDMS on C_w or their ratio; value is the mean over that pH's experiments (individual experiments in the SI's concentrations table), sd is the table's stdev; conditions: PDMS (polydimethylsiloxane silicone sheet), phosphate buffer at three target pH values (the paper's methods)
[2] = neutral chemical: log K is the mean of log D over all measurements at the three pH values (D shown independent of pH, paired t-test); sd is the table's stddev. PDMS sheets cleaned by Soxhlet with ethyl acetate; batch shaking method with a mixture of all chemicals at several PDMS-mass to water-volume ratios and spiked levels; vials shaken on an orbital shaker at room temperature in the dark, sampled at two equilibration times; PDMS extracts and water quantified by LC-HRMS (Orbitrap); D from the slope of C_PDMS on C_w or their ratio; conditions: PDMS (polydimethylsiloxane silicone sheet); phosphate buffer at three target pH values (the paper's methods)
[3] = monoprotic acid or base: log K of the neutral species extrapolated from the linear regression of D on the neutral fraction (from pKa and pH; the paper's eq. for monoprotic IOCs), the slope giving K of the neutral species; replicates column holds the table's 95% confidence limits. PDMS sheets cleaned by Soxhlet with ethyl acetate; batch shaking method with a mixture of all chemicals at several PDMS-mass to water-volume ratios and spiked levels; vials shaken on an orbital shaker at room temperature in the dark, sampled at two equilibration times; PDMS extracts and water quantified by LC-HRMS (Orbitrap); D from the slope of C_PDMS on C_w or their ratio; conditions: PDMS (polydimethylsiloxane silicone sheet); phosphate buffer at three target pH values (the paper's methods)

Structure (SMILES) | log D PDMS/w (apparent distribution ratio at the stated pH) ([1]; pH 3) | log D PDMS/w (apparent distribution ratio at the stated pH) ([1]; pH 7.4) | log D PDMS/w (apparent distribution ratio at the stated pH) ([1]; pH 11.5) | log K PDMS/w (neutral species) [2] | log K PDMS/w (neutral species) [3]
CC(C)(C)Nc1nc(N)nc(Cl)n1 | 1.314 log units; D and K as the pape | 1.264 log units; D and K as the pape | 1.309 log units; D and K as the pape | 1.296 log units; D and K as the pape | –
CCN(CC)C(=O)c1cccc(C)c1 | 1.611 log units; D and K as the pape | 1.592 log units; D and K as the pape | 1.633 log units; D and K as the pape | 1.611 log units; D and K as the pape | –
CCCCCCCCCCCC(=O)NCC(C)O (stereo not drawn) | 3.188 log units; D and K as the pape | 3.329 log units; D and K as the pape | 3.181 log units; D and K as the pape | 3.231 log units; D and K as the pape | –
CC(C)c1ccc2sc3ccccc3c(=O)c2c1 | 4.266 log units; D and K as the pape | 4.252 log units; D and K as the pape | 4.168 log units; D and K as the pape | 4.227 log units; D and K as the pape | –
NC(=O)Nc1ccc(Cl)c(Cl)c1 | 0.5975 log units; D and K as the pape | 0.6543 log units; D and K as the pape | 0.6515 log units; D and K as the pape | 0.6359 log units; D and K as the pape | –
CCC(C(N)=O)(C(N)=O)c1ccccc1 | -0.586 log units; D and K as the pape | -0.585 log units; D and K as the pape | -0.5033 log units; D and K as the pape | -0.5565 log units; D and K as the pape | –
O=C1NCCN1Cc1ccc(Cl)nc1 | – | 1.277 log units; D and K as the pape | 1.451 log units; D and K as the pape | 1.372 log units; D and K as the pape | –
N#CSCSc1nc2ccccc2s1 | 1.914 log units; D and K as the pape | 1.821 log units; D and K as the pape | – | 1.857 log units; D and K as the pape | 1.892 log units; D and K as the pape
CCCN(CCOc1c(Cl)cc(Cl)cc1Cl)C(=O)NC=O | 2.492 log units; D and K as the pape | 2.482 log units; D and K as the pape | – | 2.487 log units; D and K as the pape | –
CCNc1nc(N)nc(Cl)n1 | 0.21 log units; D and K as the pape | 0.2883 log units; D and K as the pape | 0.09 log units; D and K as the pape | 0.1961 log units; D and K as the pape | –
Cc1cccc(C)c1N(Cn1cccn1)C(=O)CS(C)=O (stereo not drawn) | 0.5745 log units; D and K as the pape | 0.5892 log units; D and K as the pape | 0.6192 log units; D and K as the pape | 0.5949 log units; D and K as the pape | –
CN(C)C(=O)Nc1ccccc1 | 0.45 log units; D and K as the pape | 0.473 log units; D and K as the pape | 0.443 log units; D and K as the pape | 0.4555 log units; D and K as the pape | –
CCCCCCCCn1sccc1=O | 3.047 log units; D and K as the pape | 2.926 log units; D and K as the pape | 2.893 log units; D and K as the pape | 2.956 log units; D and K as the pape | –
O=C1CC2(CCCCC2)CN1 | 1.311 log units; D and K as the pape | 1.249 log units; D and K as the pape | 1.271 log units; D and K as the pape | 1.277 log units; D and K as the pape | –
Cc1c(C(C)C)c(=O)n(-c2ccccc2)n1C | 1.579 log units; D and K as the pape | 1.554 log units; D and K as the pape | 1.65 log units; D and K as the pape | 1.593 log units; D and K as the pape | –
CC(C)Nc1nc(N)nc(Cl)n1 | 0.418 log units; D and K as the pape | 0.4125 log units; D and K as the pape | 0.411 log units; D and K as the pape | 0.4139 log units; D and K as the pape | –
N#Cc1nn(-c2c(Cl)cc(C(F)(F)F)cc2Cl)c(N)c1SC(F)(F)F | 2.477 log units; D and K as the pape | 2.459 log units; D and K as the pape | 2.375 log units; D and K as the pape | 2.436 log units; D and K as the pape | –
N#Cc1nn(-c2c(Cl)cc(C(F)(F)F)cc2Cl)c(N)c1S(=O)(=O)C(F)(F)F | 2.417 log units; D and K as the pape | 2.376 log units; D and K as the pape | 2.192 log units; D and K as the pape | 2.329 log units; D and K as the pape | –
O=C(/C=C/C=C/c1ccc2c(c1)OCO2)N1CCCCC1 | 3.24 log units; D and K as the pape | 3.109 log units; D and K as the pape | 3.066 log units; D and K as the pape | 3.135 log units; D and K as the pape | –
[O-][n+]1cccc2ccccc21 | 1.066 log units; D and K as the pape | 1.11 log units; D and K as the pape | 1.203 log units; D and K as the pape | 1.126 log units; D and K as the pape | –
CC=CC(=O)N(CC)c1ccccc1C (mixture of isomers) | 2.104 log units; D and K as the pape | 2.038 log units; D and K as the pape | 2.025 log units; D and K as the pape | 2.056 log units; D and K as the pape | –
Cc1ccc(C=C2C(=O)C3(C)CCC2C3(C)C)cc1 (stereo not drawn) | 3.9 log units; D and K as the pape | 3.912 log units; D and K as the pape | 3.742 log units; D and K as the pape | 3.848 log units; D and K as the pape | –
CCOC(=O)C(C)(C)Oc1ccc(Cl)cc1 | 1.764 log units; D and K as the pape | 1.684 log units; D and K as the pape | 1.69 log units; D and K as the pape | 1.711 log units; D and K as the pape | –
CCCCOCCOCCOCc1cc2c(cc1CCC)OCO2 | 3.728 log units; D and K as the pape | 3.685 log units; D and K as the pape | 3.574 log units; D and K as the pape | 3.661 log units; D and K as the pape | –
CN(C)S(=O)(=O)c1ccc(N)cc1 | -0.06167 log units; D and K as the pape | -0.02167 log units; D and K as the pape | 0.01333 log units; D and K as the pape | -0.02333 log units; D and K as the pape | –
CN(C)c1ccc(C(=O)c2ccc(N(C)C)cc2)cc1 | 2.372 log units; D and K as the pape | 2.263 log units; D and K as the pape | 1.409 log units; D and K as the pape | 2.057 log units; D and K as the pape | –
